What all share (assay type): cell-based
In assay [1] the test system is MDA-MB-435S human breast cancer cells. Nature of the assay: MTT assay, proliferation of MDA-MB-435S cells. Conditions: Homo sapiens, 72 h. As to the method: The experiments for evaluating the antineoplasmic activities of the compounds according to the present invention were carried out, and the compounds' antineoplasmic activities in vitro was evaluated by determining the inhibitory activities thereof against the proliferation of MDA-MB-435S human breast cancer cells.
The antineoplasmic activities were determined by using the MTT assay, which is based on the metabolic reduction of 3-(4,5-dimethylthylthiazol-2-yl)-2,5-diphenyl tetrazolium bromide (MTT). The dehydrogenases, which are related to NADP (niacinamide adenine dinucleotide phosphate, coenzyme) and present in mitochondrions of living cells, can reduce the yellow MTT to an insoluble, dark purple formazan. […] After the formazan is dissolved in DMSO, the optical density is determined on an ELISA Reader at the wavelength of 550/690 nm.
(§1) The adhered MDA-MB-4355 cells in logarithmic growth phase, were digested by 0.05% trypsogen, counted and formulated into a cell suspension with a medium. After counted, the suspension was inoculated on a 96-well plate with 3000 cells and 100 μl medium per well. The inoculated 96-well plate was placed overnight in an incubator at 37 with 5% CO2 to allow the cells to adhere to the wall. On the next day, the administration of the drugs started. Before the administration, into some of the control wells, each was added 20 μl of the MTT solution (5 mg/ml) without removing the medium therein. After incubated for 3 h, the absorption at A550/690 was recorded as the initial cell concentration. For the drug wells, each was added into 100 μl of medium containing 2 μl of compound solution. For the control wells which use DMSO as background control, each was also added into 100 μl of medium containing 2 μl of DMSO. In addition, each experiment was carried out with adriamycin as the positive control. Subsequently, the 96-well plate was incubated in an incubator at 37 with 5% CO2 for 72 h. each compound was tested in triplicate wells (6 μl of compound solution was put into a sterilized eppendorf centrifuge tube, then 300 μl of medium was added and mixed well, and the mixture was distributed into 3 wells respectively), and at six concentrations which form a gradient. 3 days (72 h) later, 40 μl of MTT solution (5 mg/ml) was put into each well directly (without sucking off the medium therein), and the plate was incubated in the incubator for 3 h and then taken out. The liquid in each well was sucked off, and then 100 μl of DMSO was put into each well to dissolve the crystal completely with slight shake. The absorbance of the solution in each well was determined at 550/690 nm on an ELISA Reader as the cell density after treated with the compound. The growth inhibition of compound against breast cancer cells MDA-MB-435S was represented by the cell survival rate, and IC50 was determined from the profile of cell survival rate vs compound concentration. The calculating formula was as follows: cell survival rate=[(cells+compound)A550/690/(cells+compound vector DMSO)A550/690]×100%
(In general: Tetrazolium assays rely on reduction of a dye to a coloured formazan, in cell work by metabolically active cells.)

Assay [2] deals with Hela uterine cervix cancer cells. Nature of the assay: MTT assay, Hela cells. Conditions: Homo sapiens, 72 h, 1000 cells per well. As to the method:
as §1
(§2) MDA-MB-435S: human breast cancer cells; HCT116: colon cancer cells; A549: lung adenocarcinoma cells; Hela: uterine cervix cancer cells.
(§3) The tests were performed in the same manner as that of experimental example 1, except that for Hela cells, after counted, each well was seeded with 1000 cells and 100 μl of medium on a 96-well plate.

Assay [3] concerns colon cancer cells HCT116. Nature of the assay: MTT assay, HCT116 cells. Conditions: Homo sapiens, HCT-116, 72 h. As to the method:
as §1, §2, §3

Assay [4] has as its system lung adenocarcinoma cells A549. The experiment in a line: MTT assay, A549 cells. Conditions: Homo sapiens, 72 h. As to the method:
as §1, §2, §3

Setting [5] is: note: MDA-MB-435S, read-out: IC50 (MDA-MB-435).
Setting [6] is: read-out: Cell Survival Rate IC50.

Structures are written as SMILES. Where two headings read alike, the source gives them in different places.

In the case of `CCOC(=O)CNC(=O)[C@H](C)NC(=O)[C@H](OC)[C@H](O)[C@@H](O)[C@H](O)/C=C/C(C)(C)C` [Compound L418], the IC50 (commonly the concentration that gives 50% inhibition) was 5170 ± 941 nM in assay [1] (setting [5]); 5170 nM in assay [1] (setting [6]); 572 ± 171 nM in assay [2]; 1500 ± 215 nM in assay [3]; 1550 ± 241 nM in assay [4].
Taken in the same sequence, the figures for `CO[C@@H](C(=O)N[C@@H](C)C(=O)NCCOC1CCCCC1)[C@H](O)[C@@H](O)[C@H](O)/C=C/C(C)(C)C` [Compound L458e] were 2830 ± 695 nM, 2190 nM, 822 ± 175 nM, 1510 ± 283 nM and 594 ± 69 nM.
Taken in the same sequence, the figures for `CO[C@@H](C(=O)N[C@@H](C)C(=O)NCCOC(=O)C1CC=CCC1)[C@H](O)[C@@H](O)[C@H](O)/C=C/C(C)(C)C` (stereo partly drawn) [Compound L484] were 541 ± 205 nM, 540 nM, 188 ± 42 nM, 130 ± 15 nM and 219 ± 30 nM.
As for `CO[C@@H](C(=O)N[C@@H](C)C(=O)NCCOC(=O)C1CCCCC1)[C@H](O)[C@@H](O)[C@H](O)/C=C/C(C)(C)C` [Compound L486d], the IC50 in assay [1] (setting [5]) was found to be 284 ± 100 nM; in assay [1] (setting [6]) it was 280 nM; in assay [2], 165 ± 30 nM; in assay [3], 97 ± 13 nM; in assay [4], 75 ± 14 nM.
Turning to `COc1cccc2c1C(=O)c1c(O)c3c(c(O)c1C2=O)C[C@@](O)(C(=O)CO)C[C@@H]3O[C@H]1C[C@H](N)[C@H](O)[C@H](C)O1` [adriamycin, reference compound], the IC50 stood at 510 ± 124 nM in assay [1] (setting [5]), 510 nM in assay [1] (setting [6]), 110 ± 13 nM in assay [3] and 261 ± 65 nM in assay [4].

(Values after patent publication US8470763B2, “Alpha-amino-N-substituted amides, pharmaceutical composition containing them and uses thereof” (Shanghai Institute of Materia Medica Chinese Academy of …, priority 2007, dated 2013).)
